{"source": "patent US9623031B2", "about": "“Compositions, methods and kits for treating cancer” (priority 2011, dated 2017)", "key": {"p53": {"system": "p53", "assay": "p53 expression in BCR-ABL+ LSCs treated ex vivo", "type": "cell-based, mouse", "conditions": "25 nM ex vivo"}, "[1]": {"system": "Friend virus (FV)-induced erythroleukemia", "assay": "FV-induced erythroleukemia in FV-infected mice, intraperitoneal treatment", "type": "in vivo, mouse", "from_the_text": "FV-induced erythroleukemia and production of FV leukemia stem cells (FV-LSCs): BALB/c mice were infected with FV as previously described (Subramanian A et al., J Virol. 2008; 82:382-393; Harandi O F et al., J Clin Invest. 2010; 120:4507-4519). On day 14 after infection, spleens were isolated and a single cell suspension of spleen cells was generated. The cells were filtered through a 70 μm sterile filter and flow-through cells were resuspended in RBC lysis buffer followed by centrifugation. Leukemia stem cells were isolated by FACS. Spleen cells were labeled with anti-Kit, Sca1 (BioLegend, San Diego, Calif.) and M34 antibodies. M34 is a monoclonal antibody that recognizes the envelope protein of SFFV (Chesebro B et al., Virology. 1981; 112:131-144) and was used as previously described (Subramanian A et al., J Virol. 2008; 82:382-393). As indicated M34^+Kit^+Sca1^+ cells were cultured in Methocult media (Stem Cell Technologies Vancouver BC) M3334 supplemented with 200 ng/ml Sonic Hedgehog (Shh), 15 ng/ml bone morphogenetic protein-4 (BMP4) (both from R&D Systems Minneapolis, Minn.), and 50 ng/ml stem cell factor (SCF; Peprotech). For CFU-FV assays, cells were plated in methylcellulose media containing fetal calf serum, but lacking added growth factors as previously described (Mager D L et al., Proc Natl Acad Sci USA. 1981; 78:1703-1707).\nComplete blood counts of mice treated with Δ^12-PGJ3 (0.05 mg/kg) were examined. There is no difference in treated mice and untransplanted control mice in terms of white blood cell counts, red blood cell counts or platelet counts. Changes in hematological parameters in FV-infected mice upon treatment with CyPGs were examined. FV-infected Balb/c mice were treated with Δ^12-PGJ3 (0.05 mg/kg) intraperitoneally for 7 d following which the mice were sacrificed and hematological parameters were analyzed on an Advia blood analyzer. FV-infected Δ^12-PGJ3 treated mice were compared to infected vehicle controls. N=5 per group, all data are means±s.e.m. *P<0.05. 3% w/v hydroxypropyl-3-cyclodextrin was used as a vehicle in in vivo experiments. Spleen sizes of FV-infected mice that were treated with either vehicle, 9,10-dihydro-15d-PGJ2 (0.05 mg/kg), or 15d-PGJ2 (0.05 mg/kg) were examined; N=3 pre group. Hematological parameters of Balb/c uninfected, infected, and 15d-PGJ2 treated mice were examined. N=5 per group. All data were means±s.e.m. *P<0.05.\nFV-LSC were targeted by 15d-PGJ2 in the spleen of FV-infected mice. FV-infected mice were treated with 15d-PGJ2 or 9,10-dihydro-15d-PGJ2 at 0.05 mg/kg for 7 d. The splenic LSC (M34^+Sca1^+Kit^+) cells were analyzed by flow cytometry on day 14 post infection. […] Uninfected and infected vehicle controls were used for comparison. N=3; *P<0.05. […] The colonies were counted 10-14 days after plating. N=3 mice per group, *p<0.05."}, "[2]": {"system": "BCR-ABL^+LSC transplanted mice", "assay": "Murine CML model: mice transplanted with BCR-ABL+ LSCs", "type": "in vivo, mouse", "method": "Induction of CML using MIGR-BCR-ABL retrovirus: MIGR-BCR-ABL and control MSCV-GFP retroviruses were obtained. […] C57BL/6 mice were treated with 5-fluorouracil (5-FU; 150 mg/Kg, Sigma, St. Louis, Mo.) to enrich for cycling HSCs. On day four after treatment bone marrow cells were harvested and infected with MIGR-BCR-ABL or MSCV-GFP control virus overnight in IMDM media containing 5% FCS and supplemented with 2.5 ng/ml IL-3 and 15 ng/ml SCF (R&D Systems Minneapolis, Minn.). 0.5×10^6 transduced cells were transplanted by retro-orbital injection into C57BL/6 recipient mice that were preconditioned with 950 Rads of irradiation. In order to increase the number of CML and control mice, 17 days after transplant GFP^+ spleen cells were isolated by FACS and 1×10^5 GFP^+ cells were transplanted into irradiated (950 Rads) secondary C57BL/6 recipients. Two weeks after transplant, mice were treated as indicated with CyPGs and vehicle control. For ex-vivo experiments, Kit^+Sca1^+Lin^−GFP^+ cells were isolated from the bone marrow or spleen of transplanted mice by FACS. The sorted cells were cultured in Methocult media M3334 (Stem Cell Technologies Vancouver BC) M3334 supplemented with Shh, SCF, and BMP4 and treated with the indicated CyPGs and vehicle controls for indicated time periods. […] The hematopoietic colonies (colony forming cells in culture, CFC) were scored.\nTreatment of Mice with PGs: Mice with FV-induced erythroleukemia or MIGR-BCR-ABL induced CML were treated on the indicated days with CyPGs. Mice were treated with a daily intraperitoneal injection of Δ^12-PGJ3 (0.01-0.1 mg/kg), 15d-PGJ2 (0.1 mg/kg), or 9,10-dihydro-15d-PGJ2 (0.1 mg/kg) for 7 days. All three compounds were formulated with hydroxypropyl-β-cyclodextrin (30% w/v; Sigma; vehicle control)."}, "NF-κB": {"system": "NF-κB", "assay": "NF-κB gel shift in LPS-treated RAW264.7 macrophages", "type": "cell-based, mouse", "conditions": "0.25 or 1.0 μM, then LPS 100 ng/mL 4 h", "protocol": "The effect of Δ^12-PGJ3 on NF-κB and PPAPγ was examined. RAW264.7 macrophages were pretreated with DMSO, Δ^12-PGJ3 at 0.25, or 1.0 μM and subsequently stimulated with 100 ng/mL E. coli LPS for 4 h. The nuclear extracts were prepared and the binding of NΦκB to a ^32P-labeled consensus double stranded oligonucleotide probe was examined using gel shift analysis. NS=non-specific band. Lanes 1-5 represent untreated, LPS alone, DMSO+LPS, Δ^12-PGJ3 (0.25 μM)+LPS, and Δ^12-PGJ3 (1 μM)+LPS, respectively. BCR-ABL LSCs were sorted from spleens, plated, and treated with PBS, 25 nM Δ^12-PGJ3, or 9,10-dihydro 15d-PGJ2 for 0, 2 or 6 h. The cells were harvested and nuclear extracts were prepared using standard techniques. Ten μg of nuclear protein was used from each sample for the gel-shift reaction. As a positive control for NF-κB, nuclear extract from LPS-treated murine (RAW264.7) macrophages was used. Anti-p50 Ab was used with this positive control for a supershift, and excess ‘cold’ probe was used with the positive control as a ‘cold competitor’. A Western blot analysis was performed of the above-mentioned nuclear extracts from BCR-ABL LSCs treated with PBS, Δ^12-PGJ3 or 9,10-dihydro-15d-PGJ2 for various time periods (0-6 h) probed with anti-p65 and anti-β-actin antibodies. […]"}, "[3]": {"system": "FV-LSCs (M34^+Kit^+Sca1^+)", "assay": "Apoptosis of FV-LSCs treated ex vivo (annexin V, flow cytometry)", "type": "cell-based, mouse", "conditions": "36 h", "method": "Apoptosis of LSCs was performed using annexin V as described below in Supplementary Information and Methods.\nOn day 14 after infection, spleens were isolated and a single cell suspension of spleen cells was generated. The cells were filtered through a 70 μm sterile filter and flow-through cells were resuspended in RBC lysis buffer followed by centrifugation. Leukemia stem cells were isolated by FACS. Spleen cells were labeled with anti-Kit, Sca1 (BioLegend, San Diego, Calif.) and M34 antibodies. […] As indicated M34^+Kit^+Sca1^+ cells were cultured in Methocult media (Stem Cell Technologies Vancouver BC) M3334 supplemented with 200 ng/ml Sonic Hedgehog (Shh), 15 ng/ml bone morphogenetic protein-4 (BMP4) (both from R&D Systems Minneapolis, Minn.), and 50 ng/ml stem cell factor (SCF; Peprotech).\nThe LSCs were diluted in DMEM, resuspended using a 16-gauge needle, and collected by centrifugation. 1×10^5 cells were resuspended in 200 μl of binding buffer (0.1 M HEPES with 1.4 M NaCl, 25 mM CaCl2, pH 7.4). Annexin V FITC (BD Biosciences) was incubated with cells for 15 min on ice followed by flow cytometric analysis.\nThe cells were stained with annexin V-FITC and analyzed by flow cytometry. […] Means±s.e.m. *P<0.001 compared to vehicle (PBS). […] Inset: Effect of rosiglitazone on the apoptosis of LSC. Rosiglitazone (0.1-2.0 μM) was incubated with LSC in the culture media for 36 h as described earlier and the cells were subjected to annexin-V staining followed by flow cytometry. […] LSC were treated ex vivo with indicated concentrations of each compound for 36 h. Mean±s.e.m. shown *P<0.001."}}}
{"compound": "CC/C=C\\C[C@H](O)C/C=C1/C(=O)C=C[C@@H]1C/C=C\\CCCC(=O)O", "note": "[Δ^12-PGJ3, Δ^12-prostaglandin J3]", "values": [{"measurement": "p53 mRNA", "setting": "p53", "value": "increase in p53 transcription"}, {"measurement": "reduction of splenomegaly", "setting": "[1]; 0.01 mg/kg/day i.p. for 7 days", "value": "~50", "unit": "%"}, {"measurement": "LSCs (Sca1+Kit+M34+) in the spleen", "setting": "[1]; 0.05 mg/kg i.p. 7 d, flow cytometry day 14 post infection", "value": "completely eradicated"}, {"measurement": "splenomegaly", "setting": "[1]; 0.05 and 0.1 mg/kg/day i.p. for 7 days from day 7 post infection", "value": "no signs of splenomegaly"}, {"measurement": "spleen histology (H&E)", "setting": "[1]; day 14 post infection", "value": "better demarcation of peri-arteriolar lymphoid tissue"}, {"measurement": "total leukocyte and reticulocyte counts", "setting": "[1]; i.p. 7 days", "value": "decreased to normal levels"}, {"measurement": "Bax expression in spleen", "setting": "[1]; mouse, in vivo", "value": "activation of Bax expression"}, {"measurement": "Friend virus viral replication", "setting": "[1]; mouse, in vivo", "value": "not the viral replication"}, {"measurement": "TUNEL staining of splenic sections", "setting": "[1]; mouse, in vivo", "value": "increased apoptosis"}, {"measurement": "CFU-FV colony formation", "setting": "[1]; spleen cells of treated mice plated without growth factors", "value": "completely reduced to background levels"}, {"measurement": "p53 expression in total spleen", "setting": "[1]; treated for 1 week", "value": "significant expression of p53 in the spleen"}, {"measurement": "splenomegaly", "setting": "[2]; 0.05 mg/kg for 1 week", "value": "completely alleviated splenomegaly"}, {"measurement": "Kit+Sca1+GFP+ LSCs in the spleen", "setting": "[2]; 1 week treatment", "value": "decreased"}, {"measurement": "Kit+Sca1+Lin−GFP+ LSCs in the bone marrow", "setting": "[2]; 1 week treatment", "value": "eradicated"}, {"measurement": "leukocyte counts in peripheral blood", "setting": "[2]; 1 week treatment", "value": "significantly decreased the leukocyte counts"}, {"measurement": "survival and relapse, comparison with imatinib", "setting": "[2]; Imatinib 75 mg/kg, Δ^12-PGJ3 0.025 mg/kg, 1 week", "value": "prolonged survival, but no relapse of leukemia"}, {"measurement": "relapse after last dose", "setting": "[2]; intraperitoneal, five weeks post last dose", "value": "no relapse"}, {"measurement": "survival", "setting": "[2]; vehicle mice died two weeks after transplantation", "value": "rescued all of the mice"}, {"measurement": "NF-κB pathway, gel shift", "setting": "NF-κB", "value": "did not affect the NF-κB pathway"}, {"measurement": "increase in apoptosis of FV-LSCs", "setting": "[3]; 25 nM", "value": "~75", "unit": "%"}, {"measurement": "apoptosis of FV-LSCs, dose response", "setting": "[3]; annexin V", "value": "identical effect"}]}
